Source: PMC8712300 (European Journal of Nuclear Medicine and Molecular Imaging, 2021)
Where “and” joins values, the source holds several entries; their conditions need not be identical. Identical values can stand only once. Like-named read-outs stand apart in the source and are kept apart here.

Columns and labels:
[1] = target: TSPO-WT (HAB) (Homo sapiens, UniProt P30536, T147A); assay: biochemical
[2] = target: TSPO-mutant A147T (LAB) (Homo sapiens, UniProt P30536); assay: biochemical
[3] = target: T1, TSPO (Rattus norvegicus, UniProt P16257); assay: biochemical
T1 sequence (P16257 whole entry): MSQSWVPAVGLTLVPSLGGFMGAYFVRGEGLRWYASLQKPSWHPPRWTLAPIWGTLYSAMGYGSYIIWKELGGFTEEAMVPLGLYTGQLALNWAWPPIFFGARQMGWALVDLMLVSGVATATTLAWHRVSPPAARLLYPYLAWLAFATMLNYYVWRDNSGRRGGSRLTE
Method: (§1) The binding assay was performed following a previously published procedure [22], with slight modifications.

[4] = target: central benzodiazepine receptor (CBR); conditions: read-out: Ki CBR; displacement of [^3H]flunitrazepam, rat cerebral cortex
Method: as §1

[5] = target: T1, TSPO
[6] = 37 °C, 120 min
Method: Aliquots (0.2 mL) were collected at 0, 15, 30, 60, and 120 min and mixed with acetonitrile (0.2 mL), and then centrifuged at 3500 rpm for 5 min. The resulting supernatants were analyzed using a radio-TLC scanner with the developing solvent (50% ethyl acetate-hexane).

[7] = in vitro; conditions: rat, rat plasma
Method: (§2) Plasma protein binding (PPB) was measured using two plasma samples obtained from five rats and a healthy volunteer. […] The mixtures were transferred to the Amicon® Ultra 30 K device (Merck Millipore, USA), and centrifuged at 12,000 rpm for 15 min. […] The plasma-free fraction (fP) was calculated as fp = (APfree /APtotal)/(ASfree/AStotal).

[8] = target: T1, TSPO; remark: listed apart in the source
Method: Male Sprague–Dawley rats (7–8 weeks old, Orientbio Inc.) were used to create rat models of neuroinflammation and ischemic stroke (n = 4 for each model). An acute neuroinflammation rat model was generated by injecting lipopolysaccharides (LPS, 50 μg) into the right striatum of rat brain according to our previous protocol [26]. […] In the case of LPS-induced neuroinflammatory model, rats were anesthetized with ketamine hydrochloride (50 mg/kg) and xylazine hydrochloride (0.2 mg/kg) before LPS injection.
The PET imaging study was performed using a dedicated animal PET/CT scanner (NanoPET/CT; Mediso Inc., Budapest, Hungary) with a 10-cm axial field-of-view (FOV) and a 12-cm transaxial FOV. Before PET imaging, the rats were anesthetized with 2% isoflurane. […]
(§3) The volumes of interest (VOIs) were drawn around the peak PET activity on the ipsilateral region in a coronal PET/CT slice, and symmetrically pasted into the contralateral side on the same slice to yield a contralateral VOI of identical volume and shape. […] Decay-corrected radioactivity in the VOI was expressed as the standardized uptake value (SUV), which was normalized to the injected radioactivity and body weight of the rat using PMOD software version 3.6 (PMOD Technologies Ltd., Zurich, Switzerland). […] The binding potential (BPND) was also calculated as a quantitative value, which represented the receptor binding with the radioligand. […]

[9] = n-octanol/PBS pH 7.4, individual replicates
Method: (§4) After vortexing for 1 min, each tube was placed on a table at 25 °C for 3 min. Samples of each phase (100 μL) were counted for radioactivity using a gamma-counter. Log D is expressed as the logarithm of the ratio of the count of n-octanol to that of PBS.

[10] = not given; remark: listed apart in the source
[11] = target: T1, TSPO; remark: listed apart in the source
From the text: Male Sprague–Dawley rats (7–8 weeks old, Orientbio Inc.) were used to create rat models of neuroinflammation and ischemic stroke (n = 4 for each model). […] An ischemic stroke rat model was generated via 60-min occlusion of the right middle cerebral artery (MCAO), as previously described [27]. […] In the case of ischemic stroke model, rats were anesthetized with 5% isoflurane in the presence of 30% nitrous oxide and 70% oxygen, and then were under anesthesia with 2% isoflurane in the presence of 30% nitrous oxide and 70% oxygen during MCAO surgery.
The PET imaging study was performed using a dedicated animal PET/CT scanner (NanoPET/CT; Mediso Inc., Budapest, Hungary) with a 10-cm axial field-of-view (FOV) and a 12-cm transaxial FOV. […]
as §3

[12] = in vitro; conditions: human, human plasma
Method: as §2

[13] = normal mice, PET 90 min
Method: Normal male C57BL/6 mice (n = 4, 6–7 weeks old, Orientbio Inc.) were used to perform in vivo organ distribution and dosimetry studies (see methodological details in the SI).
All the mice (n = 4) were anesthetized with 2% isoflurane. […] The CT images were used to draw region of interest (ROI) on the following organs: the brain, heart, lung, liver, stomach, urinary bladder, intestine kidneys and adrenals. […] The accumulated activity for each organ were calculated by using the area under curve (AUC) of TACs.

[14] = physchem; conditions: n-octanol/PBS
Method: as §4

Sequence of TSPO-WT (HAB) (P30536 whole entry T147A): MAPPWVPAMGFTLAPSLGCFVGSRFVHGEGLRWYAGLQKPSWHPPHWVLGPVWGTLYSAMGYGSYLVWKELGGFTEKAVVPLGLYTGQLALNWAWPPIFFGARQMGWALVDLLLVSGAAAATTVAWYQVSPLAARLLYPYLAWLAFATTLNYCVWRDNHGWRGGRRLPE
Sequence of TSPO-mutant A147T (LAB) (P30536 whole entry, stated change not applied): as the sequence (P30536 whole entry T147A) above, with A147T counted along it

Structure (SMILES): CCCN(CCC)C(=O)Cc1c(-c2ccc(F)cc2)nc2c(Cl)cc(Cl)cn12 [BS224]
- IC50 [1]: 0.59 ± 0.04 µM
- IC50 [2]: 0.45 ± 0.02 µM
- Ki [3]: 0.00051 ± 3e-05 µM
- Ki [4]: > 100 µM

Structure (SMILES): CCCN(CCC)C(=O)Cc1c(-c2ccc(OCCF)cc2)nc2c(Cl)cc(Cl)cn12 [CB251]
- Ki [4]: > 100 µM

Structure (SMILES): CN1C(=O)CN=C(c2ccccc2F)c2cc([N+](=O)[O-])ccc21 [Flunitrazepam]
- Ki [4]: 0.0062 ± 0.0001 µM

Structure (SMILES): CCC(C)N(C)C(=O)c1cc2ccccc2c(-c2ccccc2Cl)n1 (stereo not drawn) [PK 11195]
- effect on [^18F]BS224 radioactivity in brain slices (blocking) [5]: significant reduction of radioactivity
- Ki [4]: > 100 µM

Structure (SMILES): CCCN(CCC)C(=O)Cc1c(-c2ccc([18F])cc2)nc2c(Cl)cc(Cl)cn12 [[^18F]BS224, 2-(-2-(4-[^18F]fluorophenyl)-6,8-dichloro-imidazo[1,2-a]pyridin-3-yl)-N,N-dipropylacetamide]
- parent compound remained intact in human serum [6]: over 99%
- fraction unbound at 10 min, 1.19 MBq/mL [7]: 0.064 ± 0.003
- skull uptake ([8]; LPS model PET): not observed
- BPND ([8]; LPS model, SRTM, contralateral side as reference): 1.43 ± 0.17
- Effective dose (estimated whole-body human) (extrapolated from normal mouse data): 5.18 μSv/MBq and 05.18 ± 1.03 μSv/MBq
- Estimated Human Absorbed Dose, Adrenals (from normal mouse data): 09.66 ± 2.52 µGy/MBq
- Estimated Human Absorbed Dose, Brain (from normal mouse data): 04.87 ± 0.90 µGy/MBq
- Estimated Human Absorbed Dose, Breast (from normal mouse data): 02.28 ± 0.60 µGy/MBq
- Estimated Human Absorbed Dose, Colon wall (from normal mouse data): 02.79 ± 0.55 µGy/MBq
- Estimated Human Absorbed Dose, ET region (from normal mouse data): 00.75 ± 0.14 µGy/MBq
- Estimated Human Absorbed Dose, Endosteum (bone surface) (from normal mouse data): 00.91 ± 0.19 µGy/MBq
- Estimated Human Absorbed Dose, Eye lenses (from normal mouse data): 00.52 ± 0.09 µGy/MBq
- Estimated Human Absorbed Dose, Gallbladder wall (from normal mouse data): 14.98 ± 3.89 µGy/MBq
- Estimated Human Absorbed Dose, Heart wall (from normal mouse data): 10.54 ± 3.14 µGy/MBq
- Estimated Human Absorbed Dose, Kidneys (from normal mouse data): 26.23 ± 8.91 µGy/MBq
- Estimated Human Absorbed Dose, Liver (from normal mouse data): 28.88 ± 7.70 µGy/MBq
- Estimated Human Absorbed Dose, Lung (from normal mouse data): 07.99 ± 2.42 µGy/MBq
- Estimated Human Absorbed Dose, Lymphatic nodes (from normal mouse data): 02.60 ± 0.55 µGy/MBq
- Estimated Human Absorbed Dose, Muscle (from normal mouse data): 00.77 ± 0.17 µGy/MBq
- Estimated Human Absorbed Dose, Oesophagus (from normal mouse data): 03.90 ± 1.04 µGy/MBq
- Estimated Human Absorbed Dose, Oral mucosa (from normal mouse data): 00.50 ± 0.09 µGy/MBq
- Estimated Human Absorbed Dose, Pancreas (from normal mouse data): 07.79 ± 1.88 µGy/MBq
- Estimated Human Absorbed Dose, Prostate (from normal mouse data): 00.43 ± 0.05 µGy/MBq
- Estimated Human Absorbed Dose, Red (active) bone marrow (from normal mouse data): 02.01 ± 0.45 µGy/MBq
- Estimated Human Absorbed Dose, Salivary glands (from normal mouse data): 00.49 ± 0.09 µGy/MBq
- Estimated Human Absorbed Dose, Skin (from normal mouse data): 00.54 ± 0.12 µGy/MBq
- Estimated Human Absorbed Dose, Small intestine wall (from normal mouse data): 07.30 ± 0.29 µGy/MBq
- Estimated Human Absorbed Dose, Spleen (from normal mouse data): 02.90 ± 0.71 µGy/MBq
- Estimated Human Absorbed Dose, Stomach wall (from normal mouse data): 09.06 ± 3.12 µGy/MBq
- Estimated Human Absorbed Dose, Testes (from normal mouse data): 00.06 ± 0.00 µGy/MBq
- Estimated Human Absorbed Dose, Thymus (from normal mouse data): 01.88 ± 0.52 µGy/MBq
- Estimated Human Absorbed Dose, Thyroid (from normal mouse data): 00.95 ± 0.25 µGy/MBq
- Estimated Human Absorbed Dose, Urinary bladder wall (from normal mouse data): 09.46 ± 2.73 µGy/MBq
- Log D (single measurements 1-5) [9]: 2.754 and 2.735
- % in heart, Parent ([10]; 30 min): Intact
- % in kidneys, Parent ([10]; 30 min): Intact
- % in liver, Parent ([10]; 30 min): 73.6% and 73.6 ± 5.9%
- % in lung, Parent ([10]; 30 min): Intact
- % in plasma, Parent ([10]; 30 min): 90.7 ± 0.8%
- % in brain, Parent ([10]; 30 min after i.v. injection, rat): Intact
- % in heart, Parent ([10]; 90 min): Intact
- % in kidneys, Parent ([10]; 90 min): Intact
- % in liver, Parent ([10]; 90 min): 53.1% and 53.1 ± 2.7%
- % in lung, Parent ([10]; 90 min): Intact
- % in plasma, Parent ([10]; 90 min): 69.2 ± 2.9%
- % in brain, Parent ([10]; 90 min after i.v. injection, rat): Intact
- radioactivity in the femur (in vivo defluorination) ([10]; gamma counting, rat): no radioactivity could be detected
- skull uptake ([11]; ischemic stroke model PET): not observed
- BPND ([11]; ischemic stroke model, SRTM, contralateral side as reference): 1.57 ± 0.37
- fraction unbound at 10 min, 1.19 MBq/mL [12]: 0.049 ± 0.005
- AUC Brain [13]: 201.75±19.25 %ID/g min
- AUC Heart [13]: 442.73±84.59 %ID/g min
- AUC Intestine [13]: 250.45±7.71 %ID/g min
- AUC Kidney [13]: 1345.08±260.65 %ID/g min
- AUC Liver [13]: 1102.68±140.38 %ID/g min
- AUC Lung [13]: 403.48±82.21 %ID/g min
- AUC Stomach [13]: 198.98±53.18 %ID/g min
- AUC Urinary Bladder [13]: 91.44±21.23 %ID/g min
- Cmax Brain [13]: 5.78±1.51 %ID/g
- Cmax Heart [13]: 20.81±8.05 %ID/g
- Cmax Intestine [13]: 3.66±0.19 %ID/g
- Cmax Kidney [13]: 16.33±3.08 %ID/g
- Cmax Liver [13]: 16.21±1.95 %ID/g
- Cmax Lung [13]: 14.38±5.88 %ID/g
- Cmax Stomach [13]: 3.12±0.81 %ID/g
- Cmax Urinary Bladder [13]: 1.35±0.22 %ID/g
- Tmax Brain [13]: 1.83 ± 0.68 min
- Tmax Heart [13]: 0.83 ± 0.20 min
- Tmax Intestine [13]: 38.96 ± 21.39 min
- Tmax Kidney [13]: 64.38 ± 16.21 min
- Tmax Liver [13]: 38.29 ± 20.60 min
- Tmax Lung [13]: 0.71 ± 0.24 min
- Tmax Stomach [13]: 41.88 ± 23.30 min
- Tmax Urinary Bladder [13]: 45.94 ± 14.36 min
- logD ([14]; pH 7.4, Log D (single measurements 1-5), n-octanol/PBS pH 7.4, individual replicates): 2.78
- logD ([14]; pH 7.4, Log D, n-octanol/PBS pH 7.4, 25 °C, average n = 5): 2.78 ± 0.04
